Test results from ChEMBL document CHEMBL1139945, “Synthesis and biological evaluation of an 123I-labeled bicyclic nucleoside analogue (BCNA) as potential SPECT tracer for VZV-tk reporter gene imaging” (Bioorg Med Chem Lett, 2007).

Biological target: T1, Thymidine kinase (Varicella-zoster virus (strain Dumas) (HHV-3) (Human herpesvirus 3), UniProt P09250)
T1 sequence (P09250 whole entry): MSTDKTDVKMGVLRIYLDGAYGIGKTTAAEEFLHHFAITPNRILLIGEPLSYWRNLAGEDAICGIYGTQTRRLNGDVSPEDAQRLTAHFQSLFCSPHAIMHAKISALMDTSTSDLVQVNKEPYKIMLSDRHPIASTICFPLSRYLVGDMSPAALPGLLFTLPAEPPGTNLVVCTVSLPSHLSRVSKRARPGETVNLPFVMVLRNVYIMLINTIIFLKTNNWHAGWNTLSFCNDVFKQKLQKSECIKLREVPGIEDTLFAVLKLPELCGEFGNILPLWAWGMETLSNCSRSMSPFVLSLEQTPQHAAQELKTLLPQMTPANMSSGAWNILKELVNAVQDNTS
Experiment: Inhibition of VZV thymidine kinase
Set-up: species or system Human alphaherpesvirus 3

Q: For `O=c1nc2oc(-c3ccc(I)c(O)c3)cc2cn1[C@H]1C[C@H](O)[C@@H](CO)O1`, which IC50 is on record?
A: 4.2 µM

Q: `O=c1nc2oc(-c3cccc(O)c3)cc2cn1[C@H]1C[C@H](O)[C@@H](CO)O1` was tested. Which IC50 did it give?
A: 2.6 µM
